This is an account of results in patent publication US8557844B2, “Substrate reduction therapy” (The Chancellor, Masters and Scholars of the University of …, priority 2007, dated 2013).

Entries after “also recorded” stand apart in the source; their conditions may differ.

In data set [1] the test system is NPC1 cells. As to conditions: depletion of stored GSLs with NB-DGJ; cited from earlier work.
For data set [2] the following is noted: cited from earlier work.
In data set [3] the test system is NPC1 null (CT43) CHO cells. Description: BODIPY-LacCer pulse/chase endocytic transport in NPC1 null CHO cells. Type of data set: cell-based. The conditions noted are these: 50 μM NB-DGJ, 5 days, 45 min pulse, 1 h chase, FIG. 3B. From the text: (§1) It has been shown that Niemann-Pick C1 cells (NPC1 null CHO cells) and normal cells treated with amphiphiles to induce an NPC1 phenotype, in addition to free cholesterol storage, have glycosphingolipid (GSL) storage (FIG. 3A) and abnormalities in endocytic transport (FIG. 3B) including defective early to late endosomal transport and late endosomal to Golgi transport (J Biol Chem 2004; 279(25):26167-75). NPC1 cells have a 2-fold increase in total GSLs (HPLC quantified) compared to controls (FIG. 3A). […] This correction in GSL levels is associated with a correction in endocytic transport defects (J Biol Chem 2004; 279(25):26167-75). Fluorescently labelled lactosylceramide (BODIPY-LacCer), a GSL normally transported through the endocytic system to the Golgi (FIG. 3Bi), is misdirected to the LE/Lys system in untreated NPC1 cells (FIG. 3Bii), indicative of GSL storage (J Biol Chem 2004; 279(25):26167-75; J Biol Chem 2003; 278(23):20961-70; Am J Hum Genet 2001; 68(6):1361-72).

The conditions of data set [4]: cited from earlier work. This is another data set of the same source.
For data set [5], the system named is total ganglioside and GM1 content in cerebrum-brainstem. As to conditions: cited from earlier work.
For data set [6], the system named is SLOS (DHCR7−/−) MEFs. The data set is classed as cell-based, murine. The conditions noted are these: 50 μM NB-DGJ, 5 days, medium with LPDS.
In data set [7] the test system is GSL biosynthesis. The conditions noted are these: cited from earlier work.
Data set [8] has as its system DHCR7−/− mouse embryonic fibroblasts. Put plainly: Nile red staining of ER neutral lipids in DHCR7−/− MEFs. The data set is classed as cell-based. More on the design: dose or concentration left out as unconfirmed. The conditions noted are these: 5 days. The procedure:
DHCR7−/− mouse embryonic fibroblasts were grown under the conditions indicated in FIG. 9 (FCS=foetal calf serum, LPDS=lipoprotein deficient serum) for 5 days prior to staining of neutral lipids with Nile red. Under wild-type conditions (growth in FCS) Nile red stains the endoplasmic reticulum (ER) as expected. Inducing DHCR7−/− cells into a Smith-Lemli-Opitz phenotype by growth in LPDS leads to a depletion in ER neutral lipids and an elevation in punctate staining indicative of a block in transport to the ER. […] N=2.

Data set [9] concerns NPC1 null (CT43) CHO cells. Description: Total GSL level (HPLC) in NPC1 null CHO cells. The data set is classed as cell-based. As to conditions: 50 μM NB-DGJ, 5 days, FIG. 3A.
Excerpt: as §1

For `CCCCN1C[C@H](O)[C@@H](O)[C@@H](O)[C@H]1CO` [NB-DGJ, N-butyldeoxygalactonojirimycin], in data set [1], the HRP uptake entry was “correction in HRP uptake”. The tolerability result in [2] (mouse models of GSL storage diseases) was “very well tolerated”. For the same compound, the “side effect activities relative to NB-DNJ” value in [2] (mouse, in vivo) is listed as “lacks certain side effect activities associated with NB-DNJ”. The BODIPY-LacCer endocytic transport result in data set [3] is on record as “correction in abnormal BODIPY-LacCer endocytic transport; also recorded: correction in BODIPY-LacCer transport to the Golgi”. Also, the neurological side effects result in data set [4] (adult mice) was “not to cause neurological side effects”. Besides, in [4] (mouse, in vivo), the CNS penetration entry is “penetrate the CNS” and the “effects on behaviour or CNS development” value is on record as “without significant effects on behaviour or CNS development”. In addition, the “total ganglioside and GM1 content” value in [5] is “marked reduction”. Also, in [6], the “endogenous ganglioside GM1 / GSL trafficking from LE/Lys to Golgi” value is “corrected altered endogenous ganglioside GM1 trafficking”. In data set [7], the “inhibition of GSL biosynthesis relative to NB-DNJ” value is “comparably to NB-DNJ”. Further, the “ER neutral lipid levels (Nile red)” value in [8] is reported as “restoration of normal levels of neutral lipids at the ER”. Further, the GSL storage entry in data set [9] is reported as “reduction in GSL storage”.
